# Tests used:
# Assay in all cases: relative viability (nuclei count vs DMSO), 5 days (fraction); higher = more cells survive
# A-427 = tested on: A-427
# How it was run: (§1)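 Dosing by pin tool came one day after lung cancer cell lines were seeded in 1536-well plates, using either one drug or a fixed anchor-drug dose plus five library-drug doses (not always all listed) in √10 steps. After 5 days, nuclei were counted on 4× images. Relative viability is treated-well nuclei count divided by vehicle-well nuclei count, and values are medians of duplicate plates.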
# HCC-366 = tested on: HCC-366
# How it was run: as §1
# HCC-827 = tested on: HCC-827
# How it was run: as §1
# LC-2-ad = tested on: LC-2-ad
# How it was run: as §1
# NCI-H1355 = tested on: NCI-H1355
# How it was run: as §1
# NCI-H1734 = tested on: NCI-H1734
# How it was run: as §1
# NCI-H1755 = tested on: NCI-H1755
# How it was run: as §1
# NCI-H1792 = tested on: NCI-H1792
# How it was run: as §1
# NCI-H1915 = tested on: NCI-H1915
# How it was run: as §1
# NCI-H1975 = tested on: NCI-H1975
# How it was run: as §1
# NCI-H1993 = tested on: NCI-H1993
# How it was run: as §1
# NCI-H2170 = tested on: NCI-H2170
# How it was run: as §1
# NCI-H2228 = tested on: NCI-H2228
# How it was run: as §1
# NCI-H2347 = tested on: NCI-H2347
# How it was run: as §1
# NCI-H23 = tested on: NCI-H23
# How it was run: as §1
# NCI-H650 = tested on: NCI-H650
# How it was run: as §1
# RERF-LC-KJ = tested on: RERF-LC-KJ
# How it was run: as §1
# SK-LU-1 = tested on: SK-LU-1
# How it was run: as §1
# SK-MES-1 = tested on: SK-MES-1
# How it was run: as §1
# SW 1573 = tested on: SW 1573
# How it was run: as §1
# UMC-11 = tested on: UMC-11
# How it was run: as §1
compound,measurement,setting,value
Cc1csc(=NC2CCCCC2)n1/N=C/c1ccc(O)c(O)c1O [MIM1] + CS(=O)(=O)CCNCc1ccc(-c2ccc3ncnc(Nc4ccc(OCc5cccc(F)c5)c(Cl)c4)c3c2)o1 [Lapatinib] (partner 2 µM),relative viability,A-427; first compound 0.2 µM,1.05
same,relative viability,A-427; first compound 0.6325 µM,1.05
same,relative viability,A-427; first compound 2 µM,0.868
same,relative viability,A-427; first compound 6.325 µM,0.841
same,relative viability,A-427; first compound 20 µM,0.265
same,relative viability,HCC-366; first compound 0.2 µM,1.01
same,relative viability,HCC-366; first compound 0.6325 µM,0.905
same,relative viability,HCC-366; first compound 2 µM,0.741
same,relative viability,HCC-366; first compound 6.325 µM,0.548
same,relative viability,HCC-366; first compound 20 µM,0.0188
same,relative viability,HCC-827; first compound 0.2 µM,0.21
same,relative viability,HCC-827; first compound 0.6325 µM,0.181
same,relative viability,HCC-827; first compound 2 µM,0.198
same,relative viability,HCC-827; first compound 6.325 µM,0.179
same,relative viability,HCC-827; first compound 20 µM,0.248
same,relative viability,LC-2-ad; first compound 0.2 µM,0.938
same,relative viability,LC-2-ad; first compound 0.6325 µM,0.506
same,relative viability,LC-2-ad; first compound 2 µM,0.888
same,relative viability,LC-2-ad; first compound 6.325 µM,0.352
same,relative viability,LC-2-ad; first compound 20 µM,0.132
same,relative viability,NCI-H1355; first compound 0.2 µM,0.988
same,relative viability,NCI-H1355; first compound 0.6325 µM,0.902
same,relative viability,NCI-H1355; first compound 2 µM,0.967
same,relative viability,NCI-H1355; first compound 6.325 µM,0.738
same,relative viability,NCI-H1355; first compound 20 µM,0.483
same,relative viability,NCI-H1734; first compound 0.2 µM,1.18
same,relative viability,NCI-H1734; first compound 0.6325 µM,0.874
same,relative viability,NCI-H1734; first compound 2 µM,0.971
same,relative viability,NCI-H1734; first compound 6.325 µM,0.823
same,relative viability,NCI-H1734; first compound 20 µM,0.198
same,relative viability,NCI-H1755; first compound 0.2 µM,1.04
same,relative viability,NCI-H1755; first compound 0.6325 µM,0.973
same,relative viability,NCI-H1755; first compound 2 µM,1.03
same,relative viability,NCI-H1755; first compound 6.325 µM,0.722
same,relative viability,NCI-H1755; first compound 20 µM,0.251
same,relative viability,NCI-H1792; first compound 0.2 µM,0.861
same,relative viability,NCI-H1792; first compound 0.6325 µM,0.897
same,relative viability,NCI-H1792; first compound 2 µM,0.983
same,relative viability,NCI-H1792; first compound 6.325 µM,0.527
same,relative viability,NCI-H1792; first compound 20 µM,0.294
same,relative viability,NCI-H1915; first compound 0.2 µM,0.996
same,relative viability,NCI-H1915; first compound 0.6325 µM,0.659
same,relative viability,NCI-H1915; first compound 2 µM,0.82
same,relative viability,NCI-H1915; first compound 6.325 µM,0.536
same,relative viability,NCI-H1915; first compound 20 µM,0.357
same,relative viability,NCI-H1975; first compound 0.2 µM,0.789
same,relative viability,NCI-H1975; first compound 0.6325 µM,0.796
same,relative viability,NCI-H1975; first compound 2 µM,0.875
same,relative viability,NCI-H1975; first compound 6.325 µM,0.537
same,relative viability,NCI-H1975; first compound 20 µM,0.395
same,relative viability,NCI-H1993; first compound 0.2 µM,0.875
same,relative viability,NCI-H1993; first compound 0.6325 µM,0.871
same,relative viability,NCI-H1993; first compound 2 µM,0.735
same,relative viability,NCI-H1993; first compound 6.325 µM,0.87
same,relative viability,NCI-H1993; first compound 20 µM,0.541
same,relative viability,NCI-H2170; first compound 0.2 µM,0.282
same,relative viability,NCI-H2170; first compound 0.6325 µM,0.294
same,relative viability,NCI-H2170; first compound 2 µM,0.26
same,relative viability,NCI-H2170; first compound 6.325 µM,0.267
same,relative viability,NCI-H2170; first compound 20 µM,0.258
same,relative viability,NCI-H2228; first compound 0.2 µM,1.25
same,relative viability,NCI-H2228; first compound 0.6325 µM,0.735
same,relative viability,NCI-H2228; first compound 2 µM,1.22
same,relative viability,NCI-H2228; first compound 6.325 µM,0.346
same,relative viability,NCI-H2228; first compound 20 µM,0.247
same,relative viability,NCI-H2347; first compound 0.2 µM,0.941
same,relative viability,NCI-H2347; first compound 0.6325 µM,1.07
same,relative viability,NCI-H2347; first compound 2 µM,0.999
same,relative viability,NCI-H2347; first compound 6.325 µM,0.59
same,relative viability,NCI-H2347; first compound 20 µM,0.399
same,relative viability,NCI-H23; first compound 0.2 µM,1.13
same,relative viability,NCI-H23; first compound 2 µM,0.734
same,relative viability,NCI-H23; first compound 6.325 µM,0.88
same,relative viability,NCI-H23; first compound 20 µM,0.177
same,relative viability,NCI-H650; first compound 0.2 µM,0.976
same,relative viability,NCI-H650; first compound 0.6325 µM,0.737
same,relative viability,NCI-H650; first compound 2 µM,0.897
same,relative viability,NCI-H650; first compound 6.325 µM,0.791
same,relative viability,NCI-H650; first compound 20 µM,0.235
same,relative viability,RERF-LC-KJ; first compound 0.2 µM,0.769
same,relative viability,RERF-LC-KJ; first compound 0.6325 µM,0.772
same,relative viability,RERF-LC-KJ; first compound 2 µM,0.795
same,relative viability,RERF-LC-KJ; first compound 6.325 µM,0.75
same,relative viability,RERF-LC-KJ; first compound 20 µM,0.3
same,relative viability,SK-LU-1; first compound 0.2 µM,0.825
same,relative viability,SK-LU-1; first compound 0.6325 µM,0.839
same,relative viability,SK-LU-1; first compound 2 µM,0.791
same,relative viability,SK-LU-1; first compound 6.325 µM,0.72
same,relative viability,SK-LU-1; first compound 20 µM,0.325
same,relative viability,SK-MES-1; first compound 0.2 µM,0.479
same,relative viability,SK-MES-1; first compound 0.6325 µM,0.441
same,relative viability,SK-MES-1; first compound 2 µM,0.504
same,relative viability,SK-MES-1; first compound 6.325 µM,0.416
same,relative viability,SK-MES-1; first compound 20 µM,0.617
same,relative viability,SW 1573; first compound 0.2 µM,1.07
same,relative viability,SW 1573; first compound 0.6325 µM,1.15
same,relative viability,SW 1573; first compound 2 µM,1.08
same,relative viability,SW 1573; first compound 6.325 µM,0.993
same,relative viability,SW 1573; first compound 20 µM,0.83
same,relative viability,UMC-11; first compound 0.2 µM,1.22
same,relative viability,UMC-11; first compound 2 µM,1.17
same,relative viability,UMC-11; first compound 6.325 µM,0.664
same,relative viability,UMC-11; first compound 20 µM,0.181

# Source: the supplement of paper PMC10307832
